Data from PubChem BioAssay (NCI).
Several values for one entry are separate records, joined by “and”; a condition that tells them apart may be missing. Equal entries are not always repeated.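 These data come from cells grown in 96-well plates and exposed to compound for 48 hours at five concentrations. GI50 marks 50% less growth. TGI: total growth inhibition.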

Legend:
Test in all cases: inhibition of tumour cell growth, NCI panel, 48 h
SNB-19 CNS = tested on: SNB-19 CNS
A498 renal = tested on: A498 renal
IGROV1 ovarian = tested on: IGROV1 ovarian
MOLT-4 leukemia = tested on: MOLT-4 leukemia
UACC-62 melanoma = tested on: UACC-62 melanoma
OVCAR-4 ovarian = tested on: OVCAR-4 ovarian
UACC-257 melanoma = tested on: UACC-257 melanoma
HCT-116 colon = tested on: HCT-116 colon
HOP-92 NSCLC = tested on: HOP-92 NSCLC
NCI-H226 lung = tested on: NCI-H226 lung
OVCAR-8 ovarian = tested on: OVCAR-8 ovarian
KM12 colon = tested on: KM12 colon
RXF 393 renal = tested on: RXF 393 renal
786-0 renal = tested on: 786-0 renal
SF-539 CNS = tested on: SF-539 CNS
SW-620 colon = tested on: SW-620 colon
MDA-N = tested on: MDA-N
SNB-75 CNS = tested on: SNB-75 CNS
T-47D breast = tested on: T-47D breast
MDA-MB-435 = tested on: MDA-MB-435
SK-MEL-2 melanoma = tested on: SK-MEL-2 melanoma
SK-OV-3 ovarian = tested on: SK-OV-3 ovarian
HOP-62 NSCLC = tested on: HOP-62 NSCLC
MCF7 breast = tested on: MCF7 breast
SK-MEL-28 melanoma = tested on: SK-MEL-28 melanoma
HCC-2998 colon = tested on: HCC-2998 colon
EKVX NSCLC = tested on: EKVX NSCLC
A549 NSCLC = tested on: A549 NSCLC
MALME-3M melanoma = tested on: MALME-3M melanoma
OVCAR-3 ovarian = tested on: OVCAR-3 ovarian
COLO 205 colon = tested on: COLO 205 colon
UO-31 renal = tested on: UO-31 renal
SK-MEL-5 melanoma = tested on: SK-MEL-5 melanoma
HT29 colon = tested on: HT29 colon
ACHN renal = tested on: ACHN renal
CCRF-CEM leukemia = tested on: CCRF-CEM leukemia
K-562 leukemia = tested on: K-562 leukemia
BT-549 breast = tested on: BT-549 breast
SF-268 CNS = tested on: SF-268 CNS
NCI-H23 lung = tested on: NCI-H23 lung
LOX IMVI melanoma = tested on: LOX IMVI melanoma
NCI/ADR-RES ovarian = tested on: NCI/ADR-RES ovarian
PC-3 prostate = tested on: PC-3 prostate
TK-10 renal = tested on: TK-10 renal
SF-295 CNS = tested on: SF-295 CNS
M14 melanoma = tested on: M14 melanoma
RPMI-8226 leukemia = tested on: RPMI-8226 leukemia
CAKI-1 renal = tested on: CAKI-1 renal
NCI-H522 lung = tested on: NCI-H522 lung
OVCAR-5 ovarian = tested on: OVCAR-5 ovarian
HS 578T breast = tested on: HS 578T breast
DU-145 prostate = tested on: DU-145 prostate
U251 CNS = tested on: U251 CNS
SN12C renal = tested on: SN12C renal
MDA-MB-231 breast = tested on: MDA-MB-231 breast
HL-60(TB) leukemia = tested on: HL-60(TB) leukemia
HCT-15 colon = tested on: HCT-15 colon
NCI-H460 lung = tested on: NCI-H460 lung
SR leukemia = tested on: SR leukemia

In the case of `CNc1ccc(C(=O)CC(O)CCC(C)C2OC(=O)CC(O)CC(=O)CC(O)CC(O)CC(O)CC(O)CC3(O)CC(O)C(C(=O)NCCN4CCOCC4)C(CC(OC4OC(C)C(O)C(N)C4O)/C=C/C=C/C=C/C=C\C=C/C=C/C=C/C2C)O3)cc1` (stereo not given), the TGI (SNB-19 CNS) is reported as over 100000 nM, the TGI (A498 renal) is reported as 800 nM and the TGI (IGROV1 ovarian) is reported as over 100000 nM. It also gave a TGI (MOLT-4 leukemia) of over 100000 nM, a TGI (UACC-62 melanoma) of over 100000 nM and a TGI (OVCAR-4 ovarian) of over 100000 nM. The TGI (UACC-257 melanoma) was 1940 nM, the TGI (HCT-116 colon) was over 100000 nM and the TGI (HOP-92 NSCLC) was over 100000 nM. The TGI (NCI-H226 lung) was over 100000 nM, the TGI (OVCAR-8 ovarian) was 36800 nM and the TGI (KM12 colon) was over 100000 nM. For the same compound, the TGI (RXF 393 renal) was over 100000 nM, the TGI (786-0 renal) was over 100000 nM and the TGI (SF-539 CNS) was over 100000 nM. The TGI (SW-620 colon) was over 100000 nM, the TGI (MDA-N) was over 100000 nM and the TGI (SNB-75 CNS) was over 100000 nM. For the same compound, the TGI (T-47D breast) was over 100000 nM, the TGI (MDA-MB-435) was over 100000 nM and the TGI (SK-MEL-2 melanoma) was 79100 nM.
For `NC(=O)Nc1cc(-c2cccc(F)c2)sc1C(=O)N[C@H]1CCCNC1`, the GI50 (SNB-19 CNS) was 562 nM and 540 nM, the TGI (SNB-19 CNS) was > 5850 nM and 6880 nM and the GI50 (SK-OV-3 ovarian) was 132 nM and 329 nM. For the same compound, the TGI (SK-OV-3 ovarian) was 1690 nM and 3170 nM, the GI50 (HOP-62 NSCLC) was 87.6 nM and 292 nM and the TGI (HOP-62 NSCLC) was 1670 nM and 2820 nM. For the same compound, the GI50 (A498 renal) was 17.3 nM and 38.5 nM, the TGI (A498 renal) was 98.4 nM and 194 nM and the GI50 (MCF7 breast) was 28.5 nM and 144 nM. The TGI (MCF7 breast) was > 10000 nM and 13600 nM, the GI50 (IGROV1 ovarian) was 70.1 nM and 270 nM and the TGI (IGROV1 ovarian) was 1160 nM and 1740 nM. The GI50 (SK-MEL-28 melanoma) was 2950 nM and 3530 nM, the TGI (SK-MEL-28 melanoma) was > 10000 nM and 16900 nM and the GI50 (MOLT-4 leukemia) was 60.6 nM and 260 nM. The TGI (MOLT-4 leukemia) was > 10000 nM and 1800 nM, the GI50 (HCC-2998 colon) was 117 nM and 273 nM and the TGI (HCC-2998 colon) was 1400 nM and 2640 nM. The GI50 (UACC-62 melanoma) was 388 nM and 353 nM, the TGI (UACC-62 melanoma) was > 5100 nM and 3430 nM and the GI50 (OVCAR-4 ovarian) was 222 nM and 310 nM. For the same compound, the TGI (OVCAR-4 ovarian) was > 10000 nM and 17300 nM, the GI50 (EKVX NSCLC) was 576 nM and 1000 nM and the TGI (EKVX NSCLC) was > 5790 nM and 8280 nM. For the same compound, the GI50 (A549 NSCLC) was 188 nM and 356 nM, the TGI (A549 NSCLC) was 4480 nM and 2120 nM and the GI50 (MALME-3M melanoma) was 232 nM and 729 nM. The TGI (MALME-3M melanoma) was 4950 nM and 6800 nM, the GI50 (UACC-257 melanoma) was 2360 nM and 1910 nM and the TGI (UACC-257 melanoma) was > 10000 nM and 9820 nM. For the same compound, the GI50 (OVCAR-3 ovarian) was 168 nM and 550 nM, the TGI (OVCAR-3 ovarian) was 4560 nM and 5170 nM and the GI50 (COLO 205 colon) was 169 nM and 216 nM. The TGI (COLO 205 colon) was 937 nM and 645 nM, the GI50 (UO-31 renal) was 213 nM and 304 nM and the TGI (UO-31 renal) was 1790 nM and 1290 nM. For the same compound, the GI50 (SK-MEL-5 melanoma) was 295 nM and 456 nM, the TGI (SK-MEL-5 melanoma) was 2060 nM and 4270 nM and the GI50 (HCT-116 colon) was 327 nM and 428 nM. The TGI (HCT-116 colon) was 6140 nM and 2850 nM, the GI50 (HT29 colon) was 250 nM and 282 nM and the TGI (HT29 colon) was > 10000 nM and 1370 nM. The GI50 (ACHN renal) was 51.2 nM and 95.2 nM, the TGI (ACHN renal) was > 4730 nM and 2750 nM and the GI50 (CCRF-CEM leukemia) was 41.4 nM and 124 nM. The TGI (CCRF-CEM leukemia) was > 2960 nM and 3000 nM, the GI50 (K-562 leukemia) was 94.9 nM and 254 nM and the TGI (K-562 leukemia) was > 10000 nM and 10500 nM. The GI50 (BT-549 breast) was 150 nM and 334 nM, the TGI (BT-549 breast) was 2050 nM and 1410 nM and the GI50 (SF-268 CNS) was 327 nM and 458 nM. For the same compound, the TGI (SF-268 CNS) was 3350 nM and 4140 nM, the GI50 (NCI-H23 lung) was 38 nM and 193 nM and the TGI (NCI-H23 lung) was 1520 nM and 2630 nM. The GI50 (LOX IMVI melanoma) was 60.3 nM and 199 nM, the TGI (LOX IMVI melanoma) was 1040 nM and 1120 nM and the GI50 (NCI/ADR-RES ovarian) was 2190 nM and 3160 nM. For the same compound, the TGI (NCI/ADR-RES ovarian) was > 10000 nM and 19800 nM, the GI50 (PC-3 prostate) was 502 nM and 521 nM and the TGI (PC-3 prostate) was > 10000 nM and 17500 nM. For the same compound, the GI50 (HOP-92 NSCLC) was 55.3 nM and 416 nM, the TGI (HOP-92 NSCLC) was 1200 nM and 1710 nM and the GI50 (TK-10 renal) was 111 nM and 251 nM. The TGI (TK-10 renal) was 1580 nM and 1380 nM, the GI50 (SF-295 CNS) was 39.7 nM and 88.2 nM and the TGI (SF-295 CNS) was 776 nM and 2870 nM. For the same compound, the GI50 (NCI-H226 lung) was 1090 nM and 570 nM, the TGI (NCI-H226 lung) was 8690 nM and 2900 nM and the GI50 (M14 melanoma) was 31 nM and 102 nM. For the same compound, the TGI (M14 melanoma) was 476 nM and 525 nM, the GI50 (OVCAR-8 ovarian) was 131 nM and 318 nM and the TGI (OVCAR-8 ovarian) was > 3360 nM and 2040 nM. For the same compound, the GI50 (RPMI-8226 leukemia) was 660 nM and 482 nM, the TGI (RPMI-8226 leukemia) was > 8220 nM and 6110 nM and the GI50 (KM12 colon) was 6.26 nM and 35.1 nM. For the same compound, the TGI (KM12 colon) was 6380 nM and 3300 nM, the GI50 (RXF 393 renal) was 5.54 nM and 39.5 nM and the TGI (RXF 393 renal) was 25.5 nM and 244 nM. The GI50 (786-0 renal) was 71.7 nM and 166 nM, the TGI (786-0 renal) was 1350 nM and 634 nM and the GI50 (CAKI-1 renal) was 184 nM and 888 nM. The TGI (CAKI-1 renal) was > 3980 nM and 4200 nM, the GI50 (SF-539 CNS) was 19.2 nM and 61.6 nM and the TGI (SF-539 CNS) was 170 nM and 331 nM. The GI50 (NCI-H522 lung) was 291 nM and 273 nM, the TGI (NCI-H522 lung) was 4870 nM and 2230 nM and the GI50 (OVCAR-5 ovarian) was 173 nM and 361 nM. For the same compound, the TGI (OVCAR-5 ovarian) was > 6200 nM and 4400 nM, the GI50 (HS 578T breast) was 32.2 nM and 197 nM and the GI50 (SW-620 colon) was 284 nM and 423 nM. The TGI (SW-620 colon) was > 5030 nM and 3360 nM, the GI50 (DU-145 prostate) was 210 nM and 435 nM and the TGI (DU-145 prostate) was 2070 nM and 3810 nM. For the same compound, the GI50 (U251 CNS) was 354 nM and 526 nM, the TGI (U251 CNS) was > 4590 nM and 2530 nM and the GI50 (SN12C renal) was 88.9 nM and 218 nM. The TGI (SN12C renal) was 3280 nM and 3270 nM, the GI50 (MDA-MB-231 breast) was 305 nM and 424 nM and the TGI (MDA-MB-231 breast) was 2820 nM and 2330 nM. For the same compound, the GI50 (SNB-75 CNS) was 31.6 nM and 102 nM, the TGI (SNB-75 CNS) was 1010 nM and 1070 nM and the GI50 (T-47D breast) was 1070 nM and 2710 nM. The TGI (T-47D breast) was > 10000 nM and 18800 nM, the GI50 (HL-60(TB) leukemia) was 101 nM and 291 nM and the TGI (HL-60(TB) leukemia) was 3880 nM and 1280 nM. For the same compound, the GI50 (MDA-MB-435) was 69 nM and 181 nM, the TGI (MDA-MB-435) was 371 nM and 668 nM and the GI50 (SK-MEL-2 melanoma) was 151 nM and 244 nM. For the same compound, the TGI (SK-MEL-2 melanoma) was > 3750 nM and 3150 nM, the GI50 (HCT-15 colon) was 1300 nM and 1960 nM and the TGI (HCT-15 colon) was > 7180 nM and 10700 nM. The GI50 (NCI-H460 lung) was 207 nM and 467 nM, the TGI (NCI-H460 lung) was 3320 nM and 4220 nM and the GI50 (SR leukemia) was 31.2 nM and 140 nM.
